Patent US10300048B2, “Thiazolidinones as cellular anandamide uptake inhibitors and their use in the treatment of psychiatric or neurological disorders and inflammation, in particular neuroinflammation” (UNIVERSITAT BERN, priority 2014, dated 2019)
Like-named read-outs stand apart in the source and are kept apart here.

Assays:
[1] = tested on: AEA cellular uptake, U937 cells; experiment: [3H]-AEA cellular uptake inhibition in U937 cells; type: cell-based; settings: Homo sapiens, U-937, U937 cells
Protocol: [^3H]-AEA Cellular Uptake
Screening for AEA cellular uptake inhibition was performed in a semi-automated procedure: Pipetting and washing steps were performed by a Biomek3000 laboratory workstation. First, required amounts of U937 cells were centrifuged at 100×g for 5 min and resuspended in RPMI (37° C.) to a final concentration of 2×10^6 cells/mL. Then, 250 μL of cell suspension (0.5×10^6 cells per sample) were transferred into AquaSil™ silanized glass vials (Chromacol 1.1-MTV) in 96-well format. After addition of 5 μL vehicle (DMSO) or compounds the cells were incubated at 37° C. for 15 min. As positive controls OMDM-2 and UCM707 were used at 10 μM in each run. The ETI-T compounds were measured at up to 7 concentrations in triplicates from 100 pM-100 μM. After pre-incubation, a mixture of 0.5 nM[ethanolamine-1-^3H]-AEA, (60 Ci/mmol) and 99.5 nM of cold AEA (final 100 nM) was added and samples were incubated at 37° C. for another 15 min. The reaction was stopped by rapid filtration over UniFilter-96 GF/C filters (PerkinElmer) pre-soaked with PBS 0.25% BSA. Cells were washed three times with 100 μL ice-cold PBS buffer containing 1% fatty acid free BSA. After drying, 45 μL MicroScint 20 scintillation cocktail (PerkinElmer, Waltham, Mass., US) was added to the wells and the plate was sealed. Radioactivity was measured by liquid scintillation counting on a PerkinElmer Wallac Trilux MicroBeta 1450 during 2 min. Non-specific binding of [^3H]AEA (100 nM) to the glass vials was never higher than 10%. IC50 values were calculated by GraphPad® by non-linear regression using the built-in log(inhibitor) vs. response-variable slope (four parameters) function.
(§1) Statistical analysis and IC50 values were determined using GraphPad® Prism 5.0 (GraphPad® Software, San Diego, Calif., US). Inhibition curves were obtained by non-linear regression using the built-in log(inhibitor) vs. response-variable slope (four parameters) function. Results were calculated as % of vehicle control of the corresponding fraction (cells, aqueous phase) if not mentioned else. In vivo results are shown in absolute values and were analyzed by a one-way ANOVA following a Tukey's multiple comparison test or student's t-test. If not indicated else the results were compared vs. vehicle (CTRL). *** P<0.001, ** P<0.01, * P<0.05, ns=not significant P>0.05.

FAAH = FAAH (Homo sapiens (Human), UniProt O00519); experiment: FAAH activity: hydrolysis of [3H]-AEA in U937 cell homogenates; type: biochemical; settings: U937 cell homogenate, read-out: FAAH inhibition IC50
FAAH, sequence (O00519 whole entry): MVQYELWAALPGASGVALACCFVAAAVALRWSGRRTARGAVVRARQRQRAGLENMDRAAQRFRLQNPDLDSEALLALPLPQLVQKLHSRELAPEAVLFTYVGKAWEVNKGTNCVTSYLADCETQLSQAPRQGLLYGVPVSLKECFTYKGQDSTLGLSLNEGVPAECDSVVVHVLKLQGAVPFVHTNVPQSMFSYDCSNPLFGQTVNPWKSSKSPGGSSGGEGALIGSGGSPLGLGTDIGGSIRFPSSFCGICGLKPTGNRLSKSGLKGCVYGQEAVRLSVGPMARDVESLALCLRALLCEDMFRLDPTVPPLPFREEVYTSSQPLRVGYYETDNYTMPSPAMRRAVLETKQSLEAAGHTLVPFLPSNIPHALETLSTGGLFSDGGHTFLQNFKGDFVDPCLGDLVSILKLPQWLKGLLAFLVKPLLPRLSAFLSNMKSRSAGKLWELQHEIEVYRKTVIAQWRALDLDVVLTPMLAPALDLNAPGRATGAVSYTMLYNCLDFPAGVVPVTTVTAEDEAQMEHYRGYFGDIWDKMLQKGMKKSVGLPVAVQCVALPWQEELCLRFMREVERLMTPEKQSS
Protocol: Hydrolysis of [^3H]-AEA by FAAH was determined as previously described in cell homogenates of U937 cells (0.18 mg protein) (Omeir et al., 1999, Biochem Biophys Res Commun, 264, 316-20; Mor et al., 2004, J Med Chem, 47, 4998-5008). Protein amounts of cell homogenates corresponded to 0.5×10^6 cells (U937), to assure best possible comparability of IC50 values as used for the AEA cellular uptake assays. URB597 was used as positive control. Protein quantification was performed using a BCA assay (Thermo Scientific). Enzyme activity was assessed by addition of vehicle or compounds in 10 μL DMSO to 490 μL homogenate in 10 mM Tris HCl, 1 mM EDTA, 0.1% (w/v) BSA fatty acid free, pH=8 and incubation for 15 min at 37° C. After, a mixture of AEA plus [ethanolamine-1-^3H]-AEA (0.5 nM) at final 100 nM was added to the homogenates and incubated for 15 min at 37° C. The reaction was stopped by addition of 1 mL ice-cold CHCl3:MeOH (1:1) followed by vigorous vortexing. Phase separation was achieved by centrifugation at 10′000×g at 4° C. for 10 min. Radioactivity of the separated aqueous phase (upper phase) containing [^3H-ethanolamine] or [^3H-glycerol] was measured by liquid scintillation counting on a Tri-Carb 2100 TR liquid scintillation analyzer after addition of 3.5 mL Ultima Gold scintillation cocktail (PerkinElmer Life Sciences). Results are expressed as hydrolysis of tritium substrate in percent of vehicle treated control. IC50 values were calculated by GraphPad®. Data are reported as means of n=3 independent experiments performed in triplicates.
as §1

hCB1 receptor = hCB1 receptor (Homo sapiens (Human), UniProt P21554); experiment: Radioligand CB receptor binding, [3H]-CP55,940 displacement on CHO-K1 hCB1 membranes; settings: for CB1 receptor binding (%) at 10 µM: Table 4
hCB1 receptor, sequence (P21554 whole entry): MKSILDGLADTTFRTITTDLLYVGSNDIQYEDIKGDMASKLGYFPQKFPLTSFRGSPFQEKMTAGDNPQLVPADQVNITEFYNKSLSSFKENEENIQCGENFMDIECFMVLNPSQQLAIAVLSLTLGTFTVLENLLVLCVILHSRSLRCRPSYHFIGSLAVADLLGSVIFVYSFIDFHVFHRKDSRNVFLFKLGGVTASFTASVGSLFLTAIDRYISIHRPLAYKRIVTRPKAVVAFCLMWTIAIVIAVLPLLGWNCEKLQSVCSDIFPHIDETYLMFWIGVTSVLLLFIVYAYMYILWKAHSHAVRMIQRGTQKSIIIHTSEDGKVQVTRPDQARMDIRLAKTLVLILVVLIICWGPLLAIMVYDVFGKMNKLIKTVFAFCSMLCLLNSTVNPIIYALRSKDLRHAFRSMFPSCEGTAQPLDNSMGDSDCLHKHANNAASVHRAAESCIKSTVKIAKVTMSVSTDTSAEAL
Protocol: Stably transfected CHO-K1 cells expressing hCB1 or hCB2 receptors (Gertsch et al., 2008, Proc Natl Acad Sci 105, 9099-104) were cultured in T150 cm^2 flasks up to 90% confluence. The medium was removed and cells were washed twice with PBS, 37° C. 10 mL of PBS was added and the cells were scraped and transferred into a falcon tube following homogenization by a Polytron PT1300D for 5 min at 30 krpm. Then, the homogenate was centrifuged (1400×g, 5 min) to remove debris. The supernatant was subjected to ultracentrifugation (64000×g, 45 min, 4° C.) to separate cytosolic from the membrane fraction. The supernatant was discharged and the pellet resuspended in PBS by sonication. Protein quantity was determined by BCA assay (Thermo Scientific) and aliquots of 500 μL were stored at −80° C. until use.
Radioligand CB Receptor Binding
Binding properties of ETI-T compounds to hCB1 or hCB2 receptors were performed as previously reported in a [^3H]-CP55,940 displacement assay (Gertsch et al., 2008, Proc Natl Acad Sci 105, 9099-104). WIN 55,212-2 was used as positive control. In brief, 20 μg protein of CHO-K1 hCB1 or hCB2 membrane preparations were thawed on ice and resuspended in a final volume of 500 μL binding buffer (50 mM Tris-HCl, 2.5 mM EDTA, 5 mM MgCl2, 0.5% fatty acid free BSA, pH 7.4) in silanized glass vials. [^3H]-CP55,940 (168 Ci/mmol) (PerkinElmer, Waltham, Mass., US) was added to a final concentration of 0.5 nM followed by the addition of competitors or vehicle in 5 μL DMSO. Membrane binding was equilibrated for 2 h at room temperature (25° C.). Samples were filter through a 0.1% polyethylenimine pre-soaked UniFilter®-96 GF/B plate (PerkinElmer) and washed twelve times with 167 μL ice-cold assay-buffer. The plate was dried, bottom sealed and 45 μL MicroScint 20 scintillation cocktail (PerkinElmer) were added before measured on a PerkinElmer 1450 Microbeta TRILUX liquid scintillation counter. Unspecific binding was determined by WIN 55,212-2, 10 μM and subtracted from all values. […].

[2] = Table 1, 100 nM AEA, read-out: AEA uptake inhibition IC50
[3] = Table 4, read-out: AEA uptake IC50

Compound	IC50 [1, 2] [nM]	IC50 [1, 3] [nM]	IC50 (FAAH; Table 2) [µM]	IC50 (FAAH; Table 4) [µM]	CB1 receptor binding % binding at 10 μM (hCB1 receptor; Table 3) [%]	CB1 receptor binding (%) at 10 µM (hCB1 receptor) [%]
O=C1/C(=C/c2cc(Cl)c(O)c(Cl)c2)S/C(=N\c2ccccc2)N1Cc1ccco1 [Compound 23]	990	990	60.3	60.3	24	24
COc1cc(/C=C2\S/C(=N\c3ccccc3)N(c3ccccc3)C2=O)ccc1O [Compound 6]	225	225	–	26.9	–	64
COc1ccc(/C=C2\S/C(=N\c3ccc(OC)cc3)N(c3ccc(OC)cc3)C2=O)cc1 [Compound 5]	148	148	–	20.4	–	37
